Experimental data as given in PubChem BioAssay AID330 (DTP/NCI, 2004).
Where “and” joins values, the source holds several entries; their conditions need not be identical. Identical values can stand only once. Toxic doses and inconclusive results are not listed.

Tested on: P388 leukemia ip, CD2F1 mice, survival T/C
Assay: NCI In Vivo Anticancer Drug Screen. Data for tumor model P388 Leukemia (intraperitoneal) in CD2F1 (CDF1) mice
Details: endpoint: median survival time, higher = longer survival
Summary of the method: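 Mice carrying the transplanted tumor received test compound or vehicle. Survival was recorded in each group, and the value is the treated-group measurement divided by that of the vehicle-treated control group.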

[1] = dose: 50.0 mg/kg/injection, schedule: Q01DX009 (ip), vehicle: saline with Tween-80
[2] = dose: 100.0 mg/kg/injection, schedule: Q01DX009 (ip), vehicle: saline with Tween-80
[3] = dose: 200.0 mg/kg/injection, schedule: Q01DX009 (ip), vehicle: saline with Tween-80
[4] = dose: 3.13 mg/kg/injection, schedule: Q04DX003 (ip), vehicle: water
[5] = dose: 6.25 mg/kg/injection, schedule: Q04DX003 (ip), vehicle: water
[6] = dose: 12.5 mg/kg/injection, schedule: Q04DX003 (ip), vehicle: water
[7] = dose: 12.5 mg/kg/injection, schedule: Q01DX009 (ip), vehicle: saline with Tween-80
[8] = dose: 25.0 mg/kg/injection, schedule: Q01DX009 (ip), vehicle: saline with Tween-80
[9] = dose: 12.5 mg/kg/injection, schedule: Q01DX009 (ip), vehicle: distilled water + Tween-80
[10] = dose: 25.0 mg/kg/injection, schedule: Q01DX009 (ip), vehicle: distilled water + Tween-80
[11] = dose: 50.0 mg/kg/injection, schedule: Q01DX009 (ip), vehicle: distilled water + Tween-80
[12] = dose: 100.0 mg/kg/injection, schedule: Q01DX009 (ip), vehicle: distilled water + Tween-80

## O=C1OCC/C1=C1/NCCNC1=O
[1]
  T/C: 91 % of control
[2]
  T/C: 116 % of control
[3]
  T/C: 109 % of control

## COc1cccc2c1C(=O)c1c(O)c3c(c(O)c1C2=O)CC(O)(C(C)=O)CC3OC1CC(SC)C(OC(C)=O)C(C)O1 (configuration not stated)
dose: 3.13 mg/kg/injection, schedule: Q04DX003 (ip), vehicle: distilled water + Tween-80
  T/C: 100 % of control
[4]
  T/C: 101 % of control
dose: 6.25 mg/kg/injection, schedule: Q04DX003 (ip), vehicle: distilled water + Tween-80
  T/C: 105 % of control
[5]
  T/C: 96 % of control
dose: 12.5 mg/kg/injection, schedule: Q04DX003 (ip), vehicle: distilled water + Tween-80
  T/C: 97 % of control
[6]
  T/C: 97 % of control
dose: 25.0 mg/kg/injection, schedule: Q04DX003 (ip), vehicle: distilled water + Tween-80
  T/C: 100 % of control
dose: 25.0 mg/kg/injection, schedule: Q04DX003 (ip), vehicle: water
  T/C: 100 % of control
dose: 50.0 mg/kg/injection, schedule: Q04DX003 (ip), vehicle: distilled water + Tween-80
  T/C: 110 % of control
dose: 50.0 mg/kg/injection, schedule: Q04DX003 (ip), vehicle: water
  T/C: 96 % of control

## CCOP(=O)(O)C1CCCC(C)[N-]1.CCOP(=O)(O)C1CCCC(C)[N-]1.CCOP(=O)(O)C1CCCC(C)[N-]1.[Fe+3] (configuration not stated)
dose: 12.5 mg/kg/injection, schedule: Q04DX003 (ip), vehicle: saline
  T/C: 91 % of control
dose: 25.0 mg/kg/injection, schedule: Q04DX003 (ip), vehicle: saline
  T/C: 95 % of control
dose: 50.0 mg/kg/injection, schedule: Q04DX003 (ip), vehicle: saline
  T/C: 94 % of control
dose: 400.0 mg/kg/injection, schedule: Q04DX003 (ip), vehicle: saline
  T/C: 86 % of control

## CCN(CC)c1nc(NNC(=S)NC)nc(N(CC)CC)n1
dose: 100.0 mg/kg/injection, schedule: Q04DX002 (ip), vehicle: saline with Tween-80
  T/C: 100 % of control
dose: 200.0 mg/kg/injection, schedule: Q04DX002 (ip), vehicle: saline with Tween-80
  T/C: 98 % of control
dose: 400.0 mg/kg/injection, schedule: Q04DX002 (ip), vehicle: saline with Tween-80
  T/C: 100 % of control

## O=C/C(Cl)=C(/Cl)C(=O)O
dose: 2.5 mg/kg/injection, schedule: Q01DX009 (ip), vehicle: saline with Tween-80
  T/C: 110 % of control and 123 % of control
dose: 5.0 mg/kg/injection, schedule: Q01DX009 (ip), vehicle: saline with Tween-80
  T/C: 117 % of control and 121 % of control
dose: 10.0 mg/kg/injection, schedule: Q01DX009 (ip), vehicle: saline with Tween-80
  T/C: 120 % of control and 121 % of control

## O=C1c2ccccc2C(=O)c2c(NCC3CO3)ccc(NCC3CO3)c21 (configuration not stated)
dose: 0.75 mg/kg/injection, schedule: Q01DX005 (ip), vehicle: Klucel (hydroxypropylcellulose) (HPC)
  T/C: 112 % of control
dose: 1.5 mg/kg/injection, schedule: Q01DX005 (ip), vehicle: Klucel (hydroxypropylcellulose) (HPC)
  T/C: 112 % of control
dose: 3.0 mg/kg/injection, schedule: Q01DX005 (ip), vehicle: Klucel (hydroxypropylcellulose) (HPC)
  T/C: 114 % of control
dose: 6.0 mg/kg/injection, schedule: Q01DX005 (ip), vehicle: Klucel (hydroxypropylcellulose) (HPC)
  T/C: 114 % of control

## COc1c(C)cc(C)c(CBr)c1-c1c(CBr)c(C)cc(C)c1OC
dose: 100.0 mg/kg/injection, schedule: Q01DX001 (ip), vehicle: Klucel (hydroxypropylcellulose) (HPC)
  T/C: 95 % of control
dose: 200.0 mg/kg/injection, schedule: Q01DX001 (ip), vehicle: Klucel (hydroxypropylcellulose) (HPC)
  T/C: 93 % of control
dose: 400.0 mg/kg/injection, schedule: Q01DX001 (ip), vehicle: Klucel (hydroxypropylcellulose) (HPC)
  T/C: 88 % of control

## CCCCNCC(O)c1cc2c(Cl)cc(Cl)cc2c2cc(C(F)(F)F)ccc12 (configuration not stated)
dose: 6.25 mg/kg/injection, schedule: Q01DX009 (ip), vehicle: saline with Tween-80
  T/C: 98 % of control
[7]
  T/C: 106 % of control
[8]
  T/C: 102 % of control

## C[n+]1c2ccccc2c(N)c2ccccc21
dose: 30.0 mg/kg/injection, schedule: Q04DX002 (ip), vehicle: saline with Tween-80
  T/C: 117 % of control

## CCOC(=O)Cc1cc2c(cc1C)CN=C(OCC)C2
dose: 6.25 mg/kg/injection, schedule: Q01DX009 (ip), vehicle: distilled water + Tween-80
  T/C: 100 % of control
[9]
  T/C: 103 % of control
[10]
  T/C: 94 % of control
[11]
  T/C: 91 % of control
[12]
  T/C: 91 % of control
dose: 200.0 mg/kg/injection, schedule: Q01DX009 (ip), vehicle: distilled water + Tween-80
  T/C: 90 % of control
dose: 400.0 mg/kg/injection, schedule: Q01DX009 (ip), vehicle: distilled water + Tween-80
  T/C: 100 % of control

## c1nc(SSc2ncnc3nc[nH]c23)c2[nH]cnc2n1
[7]
  T/C: 113 % of control
[8]
  T/C: 118 % of control
[1]
  T/C: 100 % of control

## Cc1cc(N)ccc1Cl
[8]
  T/C: 97 % of control
[1]
  T/C: 110 % of control
[2]
  T/C: 93 % of control
[3]
  T/C: 96 % of control

## O=C(O)/C(Br)=C/c1ccccc1
[1]
  T/C: 87 % of control
[2]
  T/C: 91 % of control
[3]
  T/C: 87 % of control

## COC(=O)N1c2ccccc2C(c2ccccc2)=NC1C#N (configuration not stated)
dose: 7.5 mg/kg/injection, schedule: Q01DX005 (ip), vehicle: saline with Tween-80
  T/C: 103 % of control
dose: 15.0 mg/kg/injection, schedule: Q01DX005 (ip), vehicle: saline with Tween-80
  T/C: 112 % of control
dose: 30.0 mg/kg/injection, schedule: Q01DX005 (ip), vehicle: saline with Tween-80
  T/C: 103 % of control

## COC(=O)C1C(O)CN2CCCC12C (configuration not stated)
dose: 100.0 mg/kg/injection, schedule: Q04DX003 (ip), vehicle: saline with Tween-80
  T/C: 107 % of control
dose: 200.0 mg/kg/injection, schedule: Q04DX003 (ip), vehicle: saline with Tween-80
  T/C: 97 % of control
dose: 400.0 mg/kg/injection, schedule: Q04DX003 (ip), vehicle: saline with Tween-80
  T/C: 108 % of control

## Cc1ccc(C2OC(N)=C(O)C2=O)cc1 (configuration not stated)
dose: 60.0 mg/kg/injection, schedule: Q01DX005 (ip), vehicle: Klucel (hydroxypropylcellulose) (HPC)
  T/C: 107 % of control
dose: 120.0 mg/kg/injection, schedule: Q01DX005 (ip), vehicle: Klucel (hydroxypropylcellulose) (HPC)
  T/C: 100 % of control
dose: 240.0 mg/kg/injection, schedule: Q01DX005 (ip), vehicle: Klucel (hydroxypropylcellulose) (HPC)
  T/C: 93 % of control

## CCCOc1cc2c(cc1C(C)(C)c1ccc(OC)cc1)OCO2
dose: 50.0 mg/kg/injection, schedule: Q01DX005 (ip), vehicle: saline + Tween-80 + alcohol
  T/C: 102 % of control
dose: 100.0 mg/kg/injection, schedule: Q01DX005 (ip), vehicle: saline + Tween-80 + alcohol
  T/C: 111 % of control
dose: 200.0 mg/kg/injection, schedule: Q01DX005 (ip), vehicle: saline + Tween-80 + alcohol
  T/C: 95 % of control

## C[C@]12C[C@@H](O)[C@H]3[C@@H](CCC4=C(O)C(=O)CC[C@@]43C)[C@@H]1CC[C@@H]2O
dose: 12.5 mg/kg/injection, schedule: Q01DX005 (ip), vehicle: Klucel (hydroxypropylcellulose) (HPC)
  T/C: 97 % of control
dose: 25.0 mg/kg/injection, schedule: Q01DX005 (ip), vehicle: Klucel (hydroxypropylcellulose) (HPC)
  T/C: 105 % of control
dose: 50.0 mg/kg/injection, schedule: Q01DX005 (ip), vehicle: Klucel (hydroxypropylcellulose) (HPC)
  T/C: 101 % of control
dose: 100.0 mg/kg/injection, schedule: Q01DX005 (ip), vehicle: Klucel (hydroxypropylcellulose) (HPC)
  T/C: 90 % of control
dose: 200.0 mg/kg/injection, schedule: Q01DX005 (ip), vehicle: Klucel (hydroxypropylcellulose) (HPC)
  T/C: 95 % of control

## CC(Cc1ccc(O)cc1)NCC(O)c1ccc(O)c(O)c1 (configuration not stated)
[1]
  T/C: 104 % of control
[2]
  T/C: 109 % of control

## COc1cccc2c1C(=O)c1c(O)c3c(c(O)c1C2=O)CC(O)(/C(C)=N/NC(=O)CC(=O)N/N=C(\C)C1(O)Cc2c(O)c4c(c(O)c2C(OC2CC(N)C(O)C(C)O2)C1)C(=O)c1c(OC)cccc1C4=O)CC3OC1CC(N)C(O)C(C)O1 (configuration not stated)
dose: 3.13 mg/kg/injection, schedule: Q01DX009 (ip), vehicle: water
  T/C: 153 % of control
[4]
  T/C: 101 % of control
dose: 6.25 mg/kg/injection, schedule: Q01DX009 (ip), vehicle: water
  T/C: 169 % of control
[5]
  T/C: 110 % of control
[6]
  T/C: 112 % of control

## CC(=O)OCC1C(OC(C)=O)C(OC(C)=O)C(COC(C)=O)N1C(C)=O (configuration not stated)
dose: 100.0 mg/kg/injection, schedule: Q04DX003 (ip), vehicle: Klucel (hydroxypropylcellulose) (HPC)
  T/C: 90 % of control
dose: 200.0 mg/kg/injection, schedule: Q04DX003 (ip), vehicle: Klucel (hydroxypropylcellulose) (HPC)
  T/C: 90 % of control
dose: 400.0 mg/kg/injection, schedule: Q04DX003 (ip), vehicle: Klucel (hydroxypropylcellulose) (HPC)
  T/C: 87 % of control

## CCOC(=O)c1[nH]c(=O)[nH]c(=O)c1CBr
[9]
  T/C: 98 % of control
[10]
  T/C: 98 % of control
[11]
  T/C: 98 % of control
[12]
  T/C: 98 % of control
